Legend:
potassium arsenate = compound: O=[As]([O-])(O)O.[K+] [potassium arsenate]; test: thermal stability z-score vs DMSO; higher = more thermally stabilized by treatment; details: HeLa; arsenate concentration 1 mM
Procedure: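 Cellular thermal proteome profiling in HeLa cells treated with 1 mM arsenate for 1 h (DMSO pretreatment), heated to ten temperatures (37-66.3 °C). Soluble protein was quantified by TMT mass spectrometry relative to DMSO controls; the thermal stability score was transformed to a z-score; mean of n = 3 experiments.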

lipoamide = compound: NC(=O)CCCCC1CCSS1 [lipoamide]; test: as above; details: HeLa, lipoamide concentration 100 µM
Procedure: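 Cellular thermal proteome profiling in HeLa cells. Cells were treated with 100 µM lipoamide for 1 h, with or without 1 mM arsenate for a further 1 h, then heated to ten temperatures (37-66.3 °C), and soluble protein was quantified by TMT mass spectrometry relative to 0.1% DMSO controls. The thermal stability score (sum of log2 fold changes minus the abundance score) was transformed to a z-score; mean of n = 3 experiments.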

[1] = arsenate co-treatment: 1 mM arsenate 1 h
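Also: each temperature applied for 3 min, abundance score taken as mean log2 fold change at the two lowest temperatures, z-score obtained by mean subtraction and division by SD.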

Chain of UniProt Q07955 (Q07955 whole entry): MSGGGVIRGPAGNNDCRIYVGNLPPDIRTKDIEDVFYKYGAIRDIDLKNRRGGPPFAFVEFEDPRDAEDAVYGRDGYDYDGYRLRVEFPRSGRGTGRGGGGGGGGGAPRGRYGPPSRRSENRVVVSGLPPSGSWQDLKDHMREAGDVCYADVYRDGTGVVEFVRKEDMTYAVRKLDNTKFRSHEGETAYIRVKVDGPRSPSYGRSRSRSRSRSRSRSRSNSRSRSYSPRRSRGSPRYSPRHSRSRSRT
Chain of UniProt Q69YQ0 (Q69YQ0 whole entry): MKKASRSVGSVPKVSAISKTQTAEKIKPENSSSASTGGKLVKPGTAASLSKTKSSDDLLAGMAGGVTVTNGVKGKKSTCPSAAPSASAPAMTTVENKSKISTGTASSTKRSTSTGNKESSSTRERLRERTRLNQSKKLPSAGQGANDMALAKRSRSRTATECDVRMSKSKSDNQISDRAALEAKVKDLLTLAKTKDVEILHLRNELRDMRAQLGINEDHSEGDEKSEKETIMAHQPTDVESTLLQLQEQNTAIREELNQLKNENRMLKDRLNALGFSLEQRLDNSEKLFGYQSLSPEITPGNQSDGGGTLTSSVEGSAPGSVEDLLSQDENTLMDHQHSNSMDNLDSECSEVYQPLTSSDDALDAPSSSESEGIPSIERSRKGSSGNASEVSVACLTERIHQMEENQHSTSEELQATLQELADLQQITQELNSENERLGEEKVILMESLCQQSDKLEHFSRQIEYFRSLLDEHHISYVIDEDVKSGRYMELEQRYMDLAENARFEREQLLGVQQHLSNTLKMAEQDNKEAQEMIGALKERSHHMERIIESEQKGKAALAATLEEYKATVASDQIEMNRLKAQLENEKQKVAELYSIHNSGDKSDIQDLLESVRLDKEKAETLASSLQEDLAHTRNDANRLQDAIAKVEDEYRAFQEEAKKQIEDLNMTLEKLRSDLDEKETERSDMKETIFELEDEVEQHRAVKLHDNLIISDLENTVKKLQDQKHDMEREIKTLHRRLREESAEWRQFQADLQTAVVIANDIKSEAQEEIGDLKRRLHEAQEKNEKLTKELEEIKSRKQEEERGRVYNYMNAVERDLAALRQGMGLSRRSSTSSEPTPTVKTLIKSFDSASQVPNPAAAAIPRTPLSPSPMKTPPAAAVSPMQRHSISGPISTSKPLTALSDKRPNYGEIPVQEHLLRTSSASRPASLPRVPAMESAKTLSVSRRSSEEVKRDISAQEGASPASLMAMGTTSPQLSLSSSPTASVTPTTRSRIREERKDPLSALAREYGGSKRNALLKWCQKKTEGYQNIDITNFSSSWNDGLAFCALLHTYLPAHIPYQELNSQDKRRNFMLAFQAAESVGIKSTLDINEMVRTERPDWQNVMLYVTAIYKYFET
Chain of UniProt O60271 (O60271 whole entry): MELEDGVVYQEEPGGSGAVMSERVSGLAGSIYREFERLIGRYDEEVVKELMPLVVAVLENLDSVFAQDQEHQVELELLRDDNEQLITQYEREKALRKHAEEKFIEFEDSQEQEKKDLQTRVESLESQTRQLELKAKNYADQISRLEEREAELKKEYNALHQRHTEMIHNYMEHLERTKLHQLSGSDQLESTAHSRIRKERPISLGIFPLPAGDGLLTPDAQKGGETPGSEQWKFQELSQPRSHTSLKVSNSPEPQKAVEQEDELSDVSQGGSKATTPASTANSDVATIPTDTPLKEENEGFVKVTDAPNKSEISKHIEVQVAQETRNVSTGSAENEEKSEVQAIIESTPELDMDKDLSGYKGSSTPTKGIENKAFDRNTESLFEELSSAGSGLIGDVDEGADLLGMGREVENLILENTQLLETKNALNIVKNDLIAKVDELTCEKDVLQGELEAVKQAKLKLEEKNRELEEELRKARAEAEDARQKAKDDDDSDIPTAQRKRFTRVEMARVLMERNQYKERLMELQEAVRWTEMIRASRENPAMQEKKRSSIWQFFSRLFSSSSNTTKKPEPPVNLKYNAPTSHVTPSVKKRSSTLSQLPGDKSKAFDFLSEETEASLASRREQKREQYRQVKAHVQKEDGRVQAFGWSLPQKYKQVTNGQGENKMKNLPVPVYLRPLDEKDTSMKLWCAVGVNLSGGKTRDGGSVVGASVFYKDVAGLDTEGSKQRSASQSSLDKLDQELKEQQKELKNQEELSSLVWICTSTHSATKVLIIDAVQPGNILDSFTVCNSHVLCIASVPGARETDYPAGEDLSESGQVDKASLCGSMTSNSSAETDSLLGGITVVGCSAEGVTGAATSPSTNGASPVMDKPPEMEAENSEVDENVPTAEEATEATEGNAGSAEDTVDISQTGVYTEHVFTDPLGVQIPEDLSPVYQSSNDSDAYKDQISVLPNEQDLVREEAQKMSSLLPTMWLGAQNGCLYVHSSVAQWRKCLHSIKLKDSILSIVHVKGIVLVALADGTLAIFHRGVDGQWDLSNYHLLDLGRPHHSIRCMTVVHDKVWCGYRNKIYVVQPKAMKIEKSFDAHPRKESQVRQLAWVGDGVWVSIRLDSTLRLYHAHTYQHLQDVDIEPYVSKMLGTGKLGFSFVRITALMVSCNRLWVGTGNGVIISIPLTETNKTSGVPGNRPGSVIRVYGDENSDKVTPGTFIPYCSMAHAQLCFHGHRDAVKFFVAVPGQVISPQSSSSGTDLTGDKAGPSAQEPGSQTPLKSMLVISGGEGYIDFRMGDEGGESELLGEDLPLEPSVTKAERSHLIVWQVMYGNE
Chain of UniProt Q13242 (Q13242 whole entry): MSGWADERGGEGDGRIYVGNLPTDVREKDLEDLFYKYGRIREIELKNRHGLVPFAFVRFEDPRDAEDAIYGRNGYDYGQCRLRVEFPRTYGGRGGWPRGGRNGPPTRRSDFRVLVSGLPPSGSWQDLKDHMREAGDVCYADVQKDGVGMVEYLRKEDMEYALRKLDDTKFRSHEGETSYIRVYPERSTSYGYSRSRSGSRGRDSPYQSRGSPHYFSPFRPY
Chain of UniProt Q9Y657 (Q9Y657 whole entry): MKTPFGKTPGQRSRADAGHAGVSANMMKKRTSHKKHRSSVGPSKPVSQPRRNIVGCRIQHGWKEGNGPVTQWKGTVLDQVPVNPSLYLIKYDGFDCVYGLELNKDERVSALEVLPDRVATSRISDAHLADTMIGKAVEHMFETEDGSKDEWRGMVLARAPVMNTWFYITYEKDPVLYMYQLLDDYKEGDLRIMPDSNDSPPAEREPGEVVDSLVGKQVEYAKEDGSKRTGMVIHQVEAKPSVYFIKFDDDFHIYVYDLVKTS
Chain of UniProt P19623 (P19623 whole entry): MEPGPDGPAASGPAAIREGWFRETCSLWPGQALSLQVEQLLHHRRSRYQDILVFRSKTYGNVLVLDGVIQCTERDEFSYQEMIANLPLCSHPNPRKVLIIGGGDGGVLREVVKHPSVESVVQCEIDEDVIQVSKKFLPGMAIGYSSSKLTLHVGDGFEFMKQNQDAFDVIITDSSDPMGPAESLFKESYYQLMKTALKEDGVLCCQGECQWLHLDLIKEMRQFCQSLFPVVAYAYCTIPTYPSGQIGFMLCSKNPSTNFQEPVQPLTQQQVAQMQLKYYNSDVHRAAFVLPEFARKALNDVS
Chain of UniProt P61011 (P61011 whole entry): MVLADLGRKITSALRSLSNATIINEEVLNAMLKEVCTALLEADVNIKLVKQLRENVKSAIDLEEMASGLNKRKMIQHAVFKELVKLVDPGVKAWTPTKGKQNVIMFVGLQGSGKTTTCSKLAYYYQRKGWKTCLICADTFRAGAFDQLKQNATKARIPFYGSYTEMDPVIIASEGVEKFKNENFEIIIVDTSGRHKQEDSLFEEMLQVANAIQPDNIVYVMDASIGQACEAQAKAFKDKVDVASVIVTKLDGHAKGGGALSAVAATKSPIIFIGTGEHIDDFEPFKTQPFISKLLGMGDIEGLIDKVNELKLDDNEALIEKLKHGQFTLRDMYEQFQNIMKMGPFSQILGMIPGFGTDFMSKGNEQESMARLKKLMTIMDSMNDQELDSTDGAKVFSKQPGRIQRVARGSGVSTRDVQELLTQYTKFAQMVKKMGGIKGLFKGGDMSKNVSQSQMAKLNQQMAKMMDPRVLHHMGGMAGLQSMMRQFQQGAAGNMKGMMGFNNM
Chain of UniProt Q86XZ4 (Q86XZ4 whole entry): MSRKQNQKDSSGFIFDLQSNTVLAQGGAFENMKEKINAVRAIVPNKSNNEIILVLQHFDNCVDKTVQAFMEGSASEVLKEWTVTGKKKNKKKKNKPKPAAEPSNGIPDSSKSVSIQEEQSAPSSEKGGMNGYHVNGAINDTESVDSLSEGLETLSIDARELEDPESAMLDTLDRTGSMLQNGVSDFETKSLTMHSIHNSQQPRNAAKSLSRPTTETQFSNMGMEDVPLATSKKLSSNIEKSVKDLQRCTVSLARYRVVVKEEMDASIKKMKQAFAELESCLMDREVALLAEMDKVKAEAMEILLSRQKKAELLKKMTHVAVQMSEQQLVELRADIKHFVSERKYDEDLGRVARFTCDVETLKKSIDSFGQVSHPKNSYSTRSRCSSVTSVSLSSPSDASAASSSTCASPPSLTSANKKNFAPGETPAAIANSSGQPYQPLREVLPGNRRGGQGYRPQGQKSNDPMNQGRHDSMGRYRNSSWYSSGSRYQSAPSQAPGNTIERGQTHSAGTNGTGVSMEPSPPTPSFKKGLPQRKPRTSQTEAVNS
Chain of UniProt P10124 (P10124 whole entry): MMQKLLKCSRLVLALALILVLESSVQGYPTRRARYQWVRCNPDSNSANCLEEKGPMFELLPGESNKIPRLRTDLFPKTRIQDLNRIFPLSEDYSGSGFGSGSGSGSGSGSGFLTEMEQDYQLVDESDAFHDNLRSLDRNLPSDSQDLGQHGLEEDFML
Chain of UniProt O43805 (O43805 whole entry): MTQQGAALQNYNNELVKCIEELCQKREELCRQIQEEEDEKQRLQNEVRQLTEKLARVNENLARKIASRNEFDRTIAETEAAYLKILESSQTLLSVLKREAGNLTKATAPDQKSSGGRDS
Chain of UniProt P37108 (P37108 whole entry): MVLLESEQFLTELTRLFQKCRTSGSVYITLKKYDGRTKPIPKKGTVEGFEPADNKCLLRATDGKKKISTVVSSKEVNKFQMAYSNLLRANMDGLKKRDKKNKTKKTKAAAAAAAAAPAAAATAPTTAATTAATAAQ

Target	thermal stability z-score (potassium arsenate)	thermal stability z-score (lipoamide; [1])	thermal stability z-score (lipoamide; arsenate co-treatment: none)
SPAG9 (UniProt O60271)	0.732	0.012	-0.0736
SPAST (UniProt Q9UBP0)	0.604	-0.179	0.818
SPATA5 (UniProt Q8NB90)	-0.0295	0.389	0.148
SPATA5L1 (UniProt Q9BVQ7)	0.487	0.441	0.172
SPATA20 (UniProt Q8TB22)	-0.121	0.172	0.136
SPATS2 (UniProt Q86XZ4)	-0.00843	-0.0725	0.644
SPATS2L (UniProt Q9NUQ6)	-0.0325	0.296	0.638
SPC24 (UniProt Q8NBT2)	-0.0105	-0.122	0.106
SPC25 (UniProt Q9HBM1)	0.191	0.989	-0.483
SPCS2 (UniProt Q15005)	-0.373	-0.33	-0.411
SPCS3 (UniProt P61009)	0.879	-1.66	-1.75
SPDL1 (UniProt Q96EA4)	1.2	0.746	0.706
SPECC1 (UniProt Q5M775)	1.48	0.0376	0.504
SPECC1L (UniProt Q69YQ0)	1.47	1.12	1.43
SPG7 (UniProt Q9UQ90)	0.156	-0.126	-0.0687
SPG20 (UniProt Q8N0X7)	0.193	0.715	0.609
SPG21 (UniProt Q9NZD8)	0.634	-0.161	0.136
SPHK1 (UniProt Q9NYA1)	-0.0222	0.328	0.0728
SPIN1 (UniProt Q9Y657)	-0.0902	0.0956	0.212
SPNS1 (UniProt Q9H2V7)	0.547	-0.826	0.677
SPR (UniProt P35270)	1.36	1.28	0.634
SPRYD4 (UniProt Q8WW59)	1.75	2.66	2.54
SPRYD7 (UniProt Q5W111)	-0.339	0.397	0.0188
SPTAN1 (UniProt Q13813)	-1.44	0.768	0.506

Target	thermal stability z-score (potassium arsenate)	thermal stability z-score (lipoamide; [1])	thermal stability z-score (lipoamide; arsenate co-treatment: none)
SPTBN1 (UniProt Q01082)	-1.61	0.502	0.309
SPTLC1 (UniProt O15269)	0.833	-0.481	-0.72
SPTLC2 (UniProt O15270)	-0.25	-0.0734	-0.585
SQLE (UniProt Q14534)	0.26	0.647	1.27
SQRDL (UniProt Q9Y6N5)	-1.36	-0.541	-1.81
SQSTM1 (UniProt Q13501)	0.758	-0.226	-0.109
SRA1 (UniProt Q9HD15)	0.51	0.911	0.998
SREBF1 (UniProt P36956)	0.119	-0.33	0.0707
SREK1 (UniProt Q8WXA9)	0.00931	0.0164	0.0581
SRFBP1 (UniProt Q8NEF9)	0.756	-0.0373	-0.0723
SRGAP1 (UniProt Q7Z6B7)	-0.0461	-0.0604	-0.163
SRGAP2 (UniProt O75044)	0.309	-0.272	-0.287
SRGN (UniProt P10124)	-0.673	-0.234	0.0347
SRI (UniProt P30626)	0.177	1.28	0.78
SRM (UniProt P19623)	-0.141	-0.392	-0.0266
SRP9 (UniProt P49458)	-0.335	0.432	0.761
SRP14 (UniProt P37108)	-0.436	-0.152	-0.0661
SRP19 (UniProt P09132)	0.033	-0.296	-0.485
SRP54 (UniProt P61011)	0.715	-0.193	0.172
SRP68 (UniProt Q9UHB9)	0.344	-0.606	-0.27
SRP72 (UniProt O76094)	0.424	-0.316	-0.00987
SRPK1 (UniProt Q96SB4)	0.291	0.669	-0.433
SRPK2 (UniProt P78362)	0.168	0.467	-0.365
SRPRA (UniProt P08240)	0.545	-0.176	-0.208

Target	thermal stability z-score (potassium arsenate)	thermal stability z-score (lipoamide; [1])	thermal stability z-score (lipoamide; arsenate co-treatment: none)
SRPRB (UniProt Q9Y5M8)	1.49	-0.411	0.511
SRR (UniProt Q9GZT4)	-0.393	-0.139	-0.118
SRRM1 (UniProt Q8IYB3)	-2.14	0.79	0.714
SRRM2 (UniProt Q9UQ35)	-0.494	2.25	1.42
SRRT (UniProt Q9BXP5)	-0.751	0.06	0.206
SRSF1 (UniProt Q07955)	-0.17	2.02	0.446
SRSF2 (UniProt Q01130)	-0.0469	0.414	0.274
SRSF3 (UniProt P84103)	-0.485	1.69	0.987
SRSF4 (UniProt Q08170)	-0.0178	1.95	1.28
SRSF5 (UniProt Q13243)	-1.82	0.765	0.508
SRSF6 (UniProt Q13247)	-0.598	1.75	1.04
SRSF7 (UniProt Q16629)	0.182	1.94	0.776
SRSF9 (UniProt Q13242)	0.0934	2.14	0.947
SRSF10 (UniProt O75494)	2.99	1.16	0.452
SRSF11 (UniProt Q05519)	0.0211	0.00966	0.41
SRXN1 (UniProt Q9BYN0)	0.115	0.0621	-0.041
SSB (UniProt P05455)	0.363	-0.542	0.233
SSBP1 (UniProt Q04837)	1.94	1.55	0.76
SSBP4 (UniProt Q9BWG4)	-0.402	1.24	1.21
SSFA2 (UniProt P28290)	-0.392	-0.0444	-0.00989
SSH3 (UniProt Q8TE77)	-0.0687	0.153	-0.0576
SSNA1 (UniProt O43805)	1.34	1.6	1.39
SSR1 (UniProt P43307)	-1.26	-1.49	-0.782

From the supplement of paper PMC12463676, “Small-molecule dissolution of stress granules by redox modulation benefits ALS models” (Nature Chemical Biology, 2025)
